From ChEMBL document CHEMBL1147737, “4-(3'alpha15'beta-dihydroxy-5'beta-estran-17'beta-yl)furan-2-methyl alcohol: an anti-digoxin agent with a novel mechanism of action” (2006)
Activity calls are given as the source filed them.

Legend:
NT2 = assay: Inhibition of digoxin-induced transferrin accumulation in NT2 cells; type: functional, cell-based; details: Homo sapiens
[1] = test system: Sodium/potassium-transporting ATPase (Cavia porcellus); assay: Binding affinity to CS receptor on Na+-ATPase; details: filed as antagonist
Cavia porcellus [2] = species on record: Cavia porcellus; assay: Inhibition of digoxin-induced arrhythmias in guinea pig papillary muscle; type: functional
Cavia porcellus [3] = species on record: Cavia porcellus; assay: Inhibition of 1 uM digoxin-induced increase in the force of contraction in guinea pig papillary muscle at 10 uM; type: functional
[4] = test system: Sodium/potassium-transporting ATPase (Cavia porcellus); assay: Binding affinity to CS receptor on K(+)-ATPase; details: filed as antagonist

Measured: Activity

C[C@]12CC[C@H]3[C@@H](CC[C@@H]4C[C@H](O)CC[C@@H]43)[C@@H]1[C@H](O)C[C@@H]2c1coc(CO)c1
active: NT2 | [1] Antagonist | Cavia porcellus [2] | Cavia porcellus [3] | [4] Antagonist
